Measurements taken from patent US20060241100A1, “Acylaminobicyclic heteroaromatic compounds and uses thereof” (Pfizer Inc, priority 2005, published 2006).

Tested on: CB-1 receptor
Assay: CB-1 receptor binding ([3H]SR141716A displacement)
Settings: rat or human CB-1 protocol not specified; kind of value (Ki/IC50) not stated
Description: Compounds having an activity <20 nM are generally tested in the CB-1 GTPγ [^35S] Binding Assay and the CB-2 binding assay described below in the Biological Binding Assays section. Selected compounds are then tested in vivo using one or more of the functional assays described in the Biological Functional Assays section below. The compounds in the Examples above provided a range of CB-1 receptor binding activities from 0.1 to 500 nM.
The following assays were designed to detect compounds that inhibit the binding of [^3H] SR141716A (selective radiolabeled CB-1 ligand) and [^3H]5-(1,1-dimethylheptyl)-2-[5-hydroxy-2-(3-hydroxypropyl)-cyclohexyl]-phenol; radiolabeled CB-1/CB-2 ligand) to their respective receptors. […]
The test compounds were diluted in drug buffer (0.5% BSA, 10% DMSO and TME) and then 25 μl were added to a deep well polypropylene plate. […] In the morning the filters were counted on a Wallac Betaplate™ counter (available from PerkinElmer Life Sciences™, Boston, Mass.). […]
The test compounds were diluted in drug buffer (0.5% BSA, 10% DMSO and TME) and then 25 μl were added to a deep well polypropylene plate. […] In the morning the filters were counted on a Wallac Betaplate™ counter (available from PerkinElmer Life Sciences™, Boston, Mass.).

With `CNC1CCCOc2c1nn(-c1ccccc1Cl)c2-c1ccc(Cl)cc1` (stereo not shown) [Example 1C] the “CB-1 receptor binding activity” value was 47 nM.
